The target in data set [1] is T1, hOGA in HEK293 cells inducible for P301L mutant human Tau (isoform 2N4R) (Homo sapiens, UniProt O60502).
T1 construct: endogenous in cells; host or cells: HEK293 cells inducible for P301L mutant human Tau (isoform 2N4R)
T1 sequence (O60502 1-916): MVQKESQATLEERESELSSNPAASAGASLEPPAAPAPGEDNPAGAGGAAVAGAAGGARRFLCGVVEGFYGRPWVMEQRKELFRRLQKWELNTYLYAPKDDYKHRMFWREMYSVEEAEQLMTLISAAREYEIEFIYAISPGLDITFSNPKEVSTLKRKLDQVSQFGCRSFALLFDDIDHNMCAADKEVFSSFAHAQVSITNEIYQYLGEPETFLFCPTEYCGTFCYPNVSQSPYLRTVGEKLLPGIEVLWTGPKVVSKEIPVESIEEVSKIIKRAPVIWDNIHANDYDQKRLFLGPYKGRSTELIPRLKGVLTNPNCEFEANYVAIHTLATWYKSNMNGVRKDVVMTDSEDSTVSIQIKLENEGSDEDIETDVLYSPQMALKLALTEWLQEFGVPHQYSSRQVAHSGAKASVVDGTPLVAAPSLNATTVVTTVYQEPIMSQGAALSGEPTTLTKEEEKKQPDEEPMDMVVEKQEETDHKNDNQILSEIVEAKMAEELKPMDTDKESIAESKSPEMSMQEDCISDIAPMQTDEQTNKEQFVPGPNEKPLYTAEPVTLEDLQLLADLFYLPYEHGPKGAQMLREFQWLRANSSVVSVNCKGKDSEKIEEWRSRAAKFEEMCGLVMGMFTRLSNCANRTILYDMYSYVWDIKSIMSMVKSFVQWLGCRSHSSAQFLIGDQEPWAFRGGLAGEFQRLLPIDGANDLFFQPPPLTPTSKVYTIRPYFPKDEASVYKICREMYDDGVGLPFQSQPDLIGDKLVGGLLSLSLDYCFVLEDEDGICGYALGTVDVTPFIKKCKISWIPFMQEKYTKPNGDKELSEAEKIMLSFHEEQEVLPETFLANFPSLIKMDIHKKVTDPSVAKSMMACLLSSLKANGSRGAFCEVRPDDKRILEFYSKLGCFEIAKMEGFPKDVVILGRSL
Nature of the data set: OGA cellular assay (ICC detection of O-GlcNAcylated proteins). It counts as cell-based. The settings on record: 6 hours incubation; for Emax: maximum = Thiamet G at 200 uM; for EC50: O-GlcNAcylation intensity readout at 488 nm, read-out: Cellular hOGA, pEC50 (converted). Here is the method:
HEK293 cells inducible for P301L mutant human Tau (isoform 2N4R) were established at Janssen. Thiamet-G was used for both plate validation (high control) and as reference compound (reference EC50 assay validation). OGA inhibition is evaluated through the immunocytochemical (ICC) detection of O-GlcNAcylated proteins by the use of a monoclonal antibody (CTD110.6; Cell Signaling, #9875) detecting 0-GlcNAcylated residues as previously described (Dorfmueller et al. 2010 Chemistry & biology, 17:1250). Inhibition of OGA will result in an increase of O-GlcNAcylated protein levels resulting in an increased signal in the experiment. Cell nuclei are stained with Hoechst to give a cell culture quality control and a rough estimate of immediate compounds toxicity, if any. ICC pictures are imaged with a Perkin Elmer Opera Phenix plate microscope and quantified with the provided software Perkin Elmer Harmony 4.1.
Cells were propagated in DMEM high Glucose (Sigma, #D5796) following standard procedures. 2 days before the cell assay cells are split, counted and seeded in Poly-D-Lysine (PDL) coated 96-wells (Greiner, #655946) plate at a cell density of 12,000 cells per cm^2 (4,000 cells per well) in 100 μl of Assay Medium (Low Glucose medium is used to reduce basal levels of GlcNAcylation) (Park et al. 2014 The Journal of biological chemistry 289:13519). At the day of compound test medium from assay plates was removed and replenished with 90 μl of fresh Assay Medium. 10 μl of compounds at a 10fold final concentration were added to the wells. Plates were centrifuged shortly before incubation in the cell incubator for 6 hours. DMSO concentration was set to 0.2%. Medium is discarded by applying vacuum. For staining of cells medium was removed and cells washed once with 100 μl D-PBS (Sigma, #D8537). From next step onwards unless other stated assay volume was always 50 μl and incubation was performed without agitation and at room temperature. Cells were fixed in 50 μl of a 4% paraformaldehyde (PFA, Alpha aesar, #043368) PBS solution for 15 minutes at room temperature. […] Before analysis samples were washed 2 times manually for 5 minutes in ICC base buffer.
Imaging is performed using Perkin Elmer Phenix Opera using a water 20× objective and recording 9 fields per well. Intensity readout at 488 nm is used as a measure of O-GlcNAcylation level of total proteins in wells. To assess potential toxicity of compounds nuclei were counted using the Hoechst staining. IC50-values are calculated using parametric non-linear regression model fitting. As a maximum inhibition Thiamet G at a 200 uM concentration is present on each plate. In addition, a concentration response of Thiamet G is calculated on each plate.

Data set [2] has as its target T2, recombinant human Meningioma Expressed Antigen 5 (MGEA5), also referred to as O-GlcNAcase (OGA) (Homo sapiens, UniProt O60502).
T2 construct: Full length OGA enzyme was purchased at OnGene (cat #TP322411); purchased OnGene (so in the source)
T2 sequence (O60502 1-916): T1 sequence (O60502 1-916)
In words: OGA biochemical assay (FM-GlcNAc hydrolysis, fluorescence). The settings on record: full length OGA 2 nM, FM-GlcNAc 100 uM, pH 7.2, 6 h at room temperature; for Emax: read-out: Enzymatic Emax (%); for IC50: read-out: Enzymatic hOGA, pIC50 (converted). From the text:
The assay is based on the inhibition of the hydrolysis of fluorescein mono-β-D-N-Acetyl-Glucosamine (FM-GlcNAc) (Mariappa et al. 2015, Biochem J 470:255) by the recombinant human Meningioma Expressed Antigen 5 (MGEA5), also referred to as O-GlcNAcase (OGA). The hydrolysis FM-GlcNAc (Marker Gene technologies, cat #M1485) results in the formation of β-D-N-glucosamineacetate and fluorescein. The fluorescence of the latter can be measured at excitation wavelength 485 nm and emission wavelength 538 nm. An increase in enzyme activity results in an increase in fluorescence signal. Full length OGA enzyme was purchased at OnGene (cat #TP322411). The enzyme was stored in 25 mM Tris.HCl, pH 7.3, 100 mM glycine, 10% glycerol at −20° C. Thiamet G and GlcNAcStatin were tested as reference compounds (Yuzwa et al. 2008 Nature Chemical Biology 4:483; Yuzwa et al. 2012 Nature Chemical Biology 8:393). The assay was performed in 200 mM Citrate/phosphate buffer supplemented with 0.005% Tween-20. 35.6 g Na2HPO4 2 H2O (Sigma, #C0759) were dissolved in 1 L water to obtain a 200 mM solution. 19.2 g citric acid (Merck, #1.06580) was dissolved in 1 L water to obtain a 100 mM solution. pH of the sodiumphosphate solution was adjusted with the citric acid solution to 7.2. The buffer to stop the reaction consists of a 500 mM Carbonate buffer, pH 11.0. 734 mg FM-GlcNAc were dissolved in 5.48 mL DMSO to obtain a 250 mM solution and was stored at −20° C. OGA was used at a 2 nM concentration and FM-GlcNAc at a 100 uM final concentration. Dilutions were prepared in assay buffer.
50 nl of a compound dissolved in DMSO was dispensed on Black Proxiplate™ 384 Plus Assay plates (Perkin Elmer, #6008269) and 3 μl fl-OGA enzyme mix added subsequently. Plates were pre-incubated for 60 min at room temperature and then 2 μl FM-GlcNAc substrate mix added. […] Plates were briefly centrifuged for 1 min at 1000 rpm and incubate at room temperature for 6 h. To stop the reaction 5 μl STOP buffer were added and plates centrifuge again 1 min at 1000 rpm. Fluorescence was quantified in the Thermo Scientific Fluoroskan Ascent or the PerkinElmer EnVision with excitation wavelength 485 nm and emission wavelength 538 nm.
For analysis a best-fit curve is fitted by a minimum sum of squares method. From this an IC50 value and Hill coefficient was obtained. High control (no inhibitor) and low control (saturating concentrations of standard inhibitor) were used to define the minimum and maximum values.

Counter-ions that a name gives are not always drawn.

Broadly, the melting point is the temperature of the solid-liquid transition. What is called Emax is the maximal effect, on the per cent scale that the assay sets.

Molecule `Cc1cc(C[C@H]2CCCN(C(C)c3ccc4cccnc4c3)C2)cc(C)n1` (mixture of isomers) (as salt: HCl) [Compound 9] returned a melting point of 262.69 °C.

Regarding `Cc1cc(C[C@H]2CCCN(C(C)c3cc4ncccc4cn3)C2)cc(C)n1` (mixture of isomers) [Compound 6], the Emax in data set [1] was 41.1%. In addition, in data set [2], the Emax was 99.6% and the IC50 was 47.9 nM.

As to `Cc1cc(C[C@H]2CCCN(C(C)c3ccc4cccnc4n3)C2)cc(C)n1` (mixture of isomers) [Compound 7], in data set [1], the EC50 was 234 nM and the Emax was determined as 71.1%. For the same molecule, in data set [2], the Emax was 101% and the IC50 was 14.8 nM.

As to `Cc1cc(C[C@H]2CCCN(C(C)c3ccc4nc(O)cnc4c3)C2)cc(C)n1` (mixture of isomers) [Compound 10], in data set [1], the EC50 is greater than 1000 nM and the Emax worked out at 11.2%. In data set [2], the Emax was 101% and the IC50 was 107 nM.

Consider `Cc1cc(C[C@H]2CCCN([C@@H](C)c3ccc4ccc(C)nc4c3)C2)cc(C)n1` (single isomer, unassigned) [Compound 2], for which, in data set [2], the Emax came to 60.8% and the IC50 was 7240 nM.

For `Cc1cc(C[C@H]2CCCN([C@H](C)c3ccc4ccc(C)nc4c3)C2)cc(C)n1` (single isomer, unassigned) [Compound 3], in data set [1], the EC50 is greater than 1000 nM and the maximal effect (Emax) is 34.8%. Further, in data set [2], the Emax was determined as 101% and the IC50 was 53.7 nM.

`Cc1cc(C[C@H]2CCCN([C@@H](C)c3cnc4cccnc4c3)C2)cc(C)n1` (single isomer, unassigned) [Compound 4]: in data set [1], the EC50 was 646 nM and the Emax is 50.5%. In addition, in data set [2], the Emax amounted to 102% and the IC50 was 28.8 nM.

As to `Cc1cc(C[C@H]2CCCN([C@H](C)c3cnc4cccnc4c3)C2)cc(C)n1` (single isomer, unassigned) [Compound 5], in data set [1], the EC50 is 162 nM and the Emax came out at 86.4%. In addition, in data set [2], the Emax amounted to 103% and the IC50 is 5.5 nM.

Molecule `Cc1cc(C[C@H]2CCCN(Cc3ccc4cccnc4c3)C2)cc(C)n1` [Compound 1] yielded a melting point of 152.83 °C. Further, in data set [1], the EC50 is greater than 1000 nM and the Emax is 33%. Moreover, in data set [2], the Emax was found to be 95.8% and the IC50 is 288 nM.

As to `Cc1cc(C[C@H]2CCCN(Cc3ccc4cccnc4n3)C2)cc(C)n1` [Compound 8], in data set [1], the EC50 was greater than 1000 nM and the Emax is 29.8%. In addition, in data set [2], the Emax stood at 98.5% and the IC50 is 195 nM.

Source of the values: patent publication US20210261527A1, “OGA INHIBITOR COMPOUNDS” (Janssen Pharmaceutica NV, priority 2018, published 2021).
